Numbers after ± are expanded uncertainties.
Conditions: Liquid

vapor or sublimation pressure (313.15 K) [kPa] | vapor or sublimation pressure (323.15 K) [kPa] | vapor or sublimation pressure (333.15 K) [kPa] | vapor or sublimation pressure (343.15 K) [kPa] | vapor or sublimation pressure (353.15 K) [kPa] | vapor or sublimation pressure (363.15 K) [kPa] | Structure (SMILES)
1831 ± 14 | 2302 ± 18 | 2874 ± 22 | 3553 ± 28 |  |  | CC(F)(F)F [1,1,1-trifluoroethane]
377 ± 3 | 495 ± 4 | 639 ± 5 | 810 ± 6 | 1012 ± 8 | 1250 ± 10 | CCCC [butane]

Source: the NIST ThermoML archive (doi:10.1021/je060336+)
